# Test results as given in patent US20160244411A1, “TAU IMAGING PROBE” (CLINO LTD., priority 2013, published 2016).
# Read-outs that look alike come from different tables or passages of the source.
# How the values were obtained:
# [1] = molecular target: AD brain tissue homogenates (Homo sapiens, UniProt P10636); assay: Competitive binding test using [3H]THK-5117 as radio ligand with AD brain tissue homogenates; conditions: 2 nM [3H]THK-5117, 100 μg homogenate, 3 hours room temperature
# Method: Binding Experiment (1) with AD Brain Tissue Homogenates Competitive Binding Test Using [^3H]THK-5117 as Radio Ligand
# PBS (0.1% BSA) was used as an assay buffer, and the concentration of TI-IK-5105S or THK-5105R was adjusted with 2 nM [^3H] THK-5117 to 10^−5 to 10^−10 M in a reaction system (200 μL) containing 100 μg of the homogenates, and the competitive tests were then carried out. A nonspecific binding was measured with 2 μM of THK-5117. After incubation at room temperature for 3 hours, a glass filter plate was used to separate [^3H]THK-5117 bound to the homogenates and unbound [^3H] THK-5117, and the filter plate was washed, and then to the separated filter was added liquid scintillation cocktail, and the bound radioactivity was measured on a liquid scintillation counter. The data was analyzed by analysis software GraphPad Prism (Ver. 5). The competitive tests were carried out similarly on THK-5117S, THK-5117R, THK-5151S, and THK-5151R.
# [2] = Dynamic evaluation of normal mouse brain by small animal PET; type: in vivo, ICR mouse
# Method: For experiments in small animal PET (evaluation of its brain delivery), Polysorbate 80 was added to the ethanol-eluted fraction, from which the ethanol was removed using an evaporator. The [^18F] THK-5105S containing radioactive residue within the flask was dissolved in physiological saline and the solution prepared was used as a solution for injection.
# In this experiment, […] was administered intravenously via tail to ICR mouse (male 6 to 7 weeks old) under isoflurane anesthesia (1.5%), and the time-change of radioactivity distribution in brain was measured on Clairvivopet/CT (manufactured by Shimadzu Corporation, Kyoto). The emission scan was started simultaneously with the administration of the probe, and measured in 3D list mode for 120 min. After imaging, 35 frames (10×60 s, 10×120 s, […]) were reconstructed, and a region of interest was set in the brain, and quantified as SUV, and a time-activity curve (TAC) was created, and the Dynamism of the both probes were compared.
# THK-5105R. In order to compare the disappearance change, the peak values of the TAC for both probes were converted into 100%, and the TAC was then shown as FIG. 7B. As evident from the TACs, [^18F]THK-51055 has larger ratio of disappearance per hour than [^18F]THK-5105R, that is, has more rapid rate of disappearance.
# THK-5105R, and can therefore detect tau lesion with more excellent selectivity.
# amyloid β (Aβ) = assay: Tissue binding test with 10 AD homogenate samples, correlation with Aβ concentration; parameters: species or system human; conditions: 1 nM probe, 100 μg tissue, 1 hour incubation
# Method: (§1) Binding Experiment (2) with AD Brain Tissue Homogenates Organization Binding Evaluation Experiment of [^18F]THK-5105S
# (§2) According to the above-mentioned assay buffer, nonspecific binding measurement, and filter separation operation, using 10 kinds of AD homogenate samples each having different tau concentration and amyloid β (Aβ) concentration, the reaction system was adjusted such that the tissue concentration was made 100 μg and [^18F]THK-5105S concentration was made 1 nM, and the binding test (1 hour incubation) was carried out in the reaction system.
# (§3) As comparative example, the binding test was carried out also on [^18F]THK-5105R according to the similar method. The tau concentration or Aβ concentration was plotted on horizontal axis […], and the bound amount of [^18F]THK-5105S and [^18F]THK-5105R was plotted on vertical axis, and the correlation thereof was evaluated.
# (§4) This means that when imaging, [^18F]THK-5105S can be detected the change of the tau concentration more sensitively.
# tau = assay: Tissue binding test with 10 AD homogenate samples, correlation with tau concentration; parameters: species or system human; conditions: 1 nM probe, 100 μg tissue, 1 hour incubation, in comparison with [18F]THK-5105R
# Method: as §1, §2, §3, §4
# tau lesion region = assay: Autoradiography of hippocampus sections of an Alzheimer's disease patient; type: binding, human; conditions: AD hippocampus section, about 400 μCi/ml, in comparison with the corresponding R-form
# Method: A brain specimen in hippocampus of the patient which was definitively-diagnosed as Alzheimer's disease pathologically was used. A paraffin-embedded brain tissue was sliced by 6 μm or 8 μm thick, and stretched on a glass slide, and dried. The paraffin brain sections were deparaffinized by washing sequentially with xylene 10 min.×2, 100% ethanol 5 min.×2, 90% ethanol 5 min., and flowing water 10 min. After deparaffinization, the sections were immersed in PBS. Each of about 400 μCi/ml of [^18F]THK-5105S and [^18F]THK-5105R was added dropwise to the sections, and the sections were allowed to a reaction at room temperature for 10 min. Thereafter, the sections were immersed in distilled water for 2 min., and successively, shaked lightly in 50% EtOH for 2 min., and thereafter immersed in distilled water for 2 min. again, and dried on paraffin stretching plate. Then, the sections were contacted with imaging plate, and allowed to stand overnight, and on next day, the imaging was read on BAS5000 (manufactured by FUJIFILM Holdings Corporation).
# The autoradiography experiments were also carried out similarly on [^18F]THK-5151S and [^18F]THK-5151R.
# THK-5105R and [^18F] THK-5151R in tau lesion region, which means that they binds more strongly to tau pathology.
# [3] = test system: AD hippocampus tissue homogenate (tau lesion); assay: Saturation binding experiment with AD hippocampus tissue homogenate; parameters: species or system human; conditions: 0.1 to 100 nM
# Method: Further, according to the above-mentioned assay buffer, nonspecific binding measurement, and filter separation operation, each saturation binding experiment of [^18F]THK-5151S and [^18F]THK-5151R was carried out with AD hippocampus tissue homogenate. Zero point one (0.1) to 100 nM of each tested substance was incubated with hippocampus homogenate, and then filtered with a filter, washed, and then measured radioactivity supplemented by the filter, and thereby calculated as total binding and nonspecific binding at each concentration. The data was analyzed with GraphPad Prism (Ver. 5) to calculate binding dissociation constants Kd and Bmax. The binding curve of the results and the analysis results are shown as FIG. 6c.
# [4] = Dynamic evaluation of normal mouse brain by biodistribution method; type: in vivo, ICR mouse
# Method: A saline comprising [^18F]THK-5105S or [18F]THK-5105R was administered intravenously via tail to ICR mouse (male 6 to 7 weeks old), and the time change of radioactivity distribution in brain was measured on Clairvivopet/CT (manufactured by Shimadzu Corporation, Kyoto). The brain dynamics was evaluated by the time-change of the accumulation rate of radioactivity in brain tissue after 2 min., 10 min., 30 min., 60 min., and 120 min.
# The accumulation rate of radioactivity was calculated as the ratio of radioactivity per weight of evaluated tissue against total administered radioactivity (% Injected Dose/g of tissue; % ID/g). The measurement of the radioactivity was carried out with Gamma counter (Accuflex γ7000, measured by Hitachi-Aloka Medical, Tokyo). The experimental procedure was as follows. After administering the label compound intravenously via tail at 2 min., 10 min., 30 min., 60 min., and 120 min., cervical dislocation of mouse was performed under ether anesthesia, and organ tissues were extracted. The radioactivity and the weight of each sample were measured, and the data was analyzed to calculate % ID/g. Also, as the evaluation index for the disappearance from the brain, the divided value of the accumulation rate at 2 min. after administration by the accumulation rate at 60 min. after administration (2 min./60 min. ratio) was calculated.
# [5] = read-out: Ki Entorhinal cortex 601 pmol/g tissue
# [6] = read-out: Ki Temporal lobe cortex (607.6 pmol/g tissue)
# [7] = intravenous via tail, in comparison with [18F]THK-5105R
# AD brain tissue homogenates, sequence (P10636 623-695 limits assumed): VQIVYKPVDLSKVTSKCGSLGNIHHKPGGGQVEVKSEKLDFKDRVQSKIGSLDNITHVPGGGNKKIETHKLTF
smiles,measurement,setting,value
"CN(C)c1ccc(-c2ccc3cc(OC[C@@H](O)CF)ccc3n2)cc1 [THK-5105R, reference compound]",Ki,[1]; [5],27.4 nM
same,Ki,[1]; [6],16.3 nM
CN(C)c1ccc(-c2ccc3cc(OC[C@H](O)CF)ccc3n2)cc1 [THK-5105S],Ki,[1]; [5],4.6 nM
same,Ki,[1]; [6],2.6 nM
"CNc1ccc(-c2ccc3cc(OCC(O)CF)ccc3n2)cc1 (centres unmarked) [THK-5117R, reference compound]",Ki,[1]; [6],25.7 ± 10.7 nM
CNc1ccc(-c2ccc3cc(OC[C@H](O)CF)ccc3n2)cc1 [THK-5117S],Ki,[1]; [6],9.4 ± 4.8 nM
CNc1ccc(-c2ccc3cc(OC[C@H](O)CF)ccc3n2)cn1 [THK-5151S],Ki,[1]; [6],7.2 ± 1.27 nM
"CN(C)c1ccc(-c2ccc3cc(OCC(O)C[18F])ccc3n2)cc1 (centres unmarked) [[^18F]THK-5105R, reference compound]",SUV Ratio 5 min./30 min.,"[2]; brain, intravenous via tail",1.92 ± 0.3
same,SUV Ratio 5 min./60 min.,"[2]; brain, intravenous via tail",3.67 ± 0.9
same,SUV Ratio 5 min./120 min.,"[2]; brain, intravenous via tail",7.75 ± 1.6
same,correlation of tissue bound amount with the Aβ concentration,amyloid β (Aβ),could not be found to have a correlation with the Aβ concentration
CN(C)c1ccc(-c2ccc3cc(OC[C@H](O)CF)ccc3n2)cc1 [[^18F]THK-5105S],"SUV ratios 5 min./30 min., 5 min./60 min., 5 min./120 min. compared between probes","[2]; brain, in comparison with [18F]THK-5105R",significantly higher value
same,SUV Ratio 5 min./30 min.,"[2]; brain, intravenous via tail",2.70 ± 0.1
same,SUV Ratio 5 min./60 min.,"[2]; brain, intravenous via tail",6.27 ± 0.6
same,SUV Ratio 5 min./120 min.,"[2]; brain, intravenous via tail",19.2 ± 4.4
same,disappearance from normal brain tissue (time-activity curve),[2]; [7],disappeared more rapidly from normal brain tissue
same,retention into the normal brain tissue,[2]; [7],lower retention into the normal brain tissue
same,correlation of tissue bound amount with the tau concentration,tau,extremely higher correlation with the tau concentration
same,tissue bound amount,tau,higher bound amount
same,correlation of tissue bound amount with the Aβ concentration,amyloid β (Aβ),could not be found to have a correlation with the Aβ concentration
CN(C)c1ccc(-c2ccc3cc(OC[C@H](O)C[18F])ccc3n2)cc1 [[^18F]THK-5105S],autoradiography imaging signal in tau lesion region,tau lesion region,stronger imaging signal
CNc1ccc(-c2ccc3cc(OC[C@H](O)CF)ccc3n2)cn1 [[^18F]THK-5151S],autoradiography imaging signal in tau lesion region,tau lesion region,stronger imaging signal
same,Bmax/Kd value as bonding potential in comparison with [18F]THK-5151R,[3],about fourth times large Bmax/Kd value
same,Kd value in comparison with [18F]THK-5151R,[3],about one tenth small Kd value
same,"accumulation rate of radioactivity in brain, 2 min.","[4]; 2 min. after intravenous administration, n = 4",4.36 ± 0.19 % ID/g
same,"accumulation rate of radioactivity in brain, 10 min.","[4]; 10 min. after intravenous administration, n = 4",1.10 ± 0.19 % ID/g
same,"accumulation rate of radioactivity in brain, 30 min.","[4]; 30 min. after intravenous administration, n = 4",0.21 ± 0.03 % ID/g
same,"accumulation rate of radioactivity in brain, 60 min.","[4]; 60 min. after intravenous administration, n = 4",0.13 ± 0.03 % ID/g
same,"accumulation rate of radioactivity in brain, 120 min.","[4]; 120 min. after intravenous administration, n = 4",0.12 ± 0.02 % ID/g
same,2 min./60 min. ratio,[4]; brain accumulation rate at 2 min. divided by that at 60 min.,33
same,"accumulation rate value after the initial uptake, compared between probes",[4]; in comparison with [18F]THK-5151R,lower values
same,brain uptake shortly after administration,[4]; shortly after administration,about 4 % ID/g
